PubChem BioAssay AID1159558 (GlaxoSmithKline (GSK), 2015)
Calls of active or inactive are those of the source.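 Rule for the calls: active = IC50 against T. cruzi CYP51 below a set limit; inactive = the rest.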

What follows are molecules tested against Sterol 14-alpha demethylase (Trypanosoma cruzi (strain CL Brener)) (UniProt Q7Z1V1) (assay: TcCYP51 inhibitors, dose response, mechanism study for T. cruzi antiparasitic project, biochemical, recombinant enzyme (AID 1159558;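 note: enzyme in bacterial membranes with Anopheles gambiae CYP reductase and cytochrome b5 partners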)). Details: recombinant T. cruzi CYP51, BOMCC fluorescence.
Chain of Sterol 14-alpha demethylase (Trypanosoma cruzi (strain CL Brener)) (Q7Z1V1 whole entry, looked up): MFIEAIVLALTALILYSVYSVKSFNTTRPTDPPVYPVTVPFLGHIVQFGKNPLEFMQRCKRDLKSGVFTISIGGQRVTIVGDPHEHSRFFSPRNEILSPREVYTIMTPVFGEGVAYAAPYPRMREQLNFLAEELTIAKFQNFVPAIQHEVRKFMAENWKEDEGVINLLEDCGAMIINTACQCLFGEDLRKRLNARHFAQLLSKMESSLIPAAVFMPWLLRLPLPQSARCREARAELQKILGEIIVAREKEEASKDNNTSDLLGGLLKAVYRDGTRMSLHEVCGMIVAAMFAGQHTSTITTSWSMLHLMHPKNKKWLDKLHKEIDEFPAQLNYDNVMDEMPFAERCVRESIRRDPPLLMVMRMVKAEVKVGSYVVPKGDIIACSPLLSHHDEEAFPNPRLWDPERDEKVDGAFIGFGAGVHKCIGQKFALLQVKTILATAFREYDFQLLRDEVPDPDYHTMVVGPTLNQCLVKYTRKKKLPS
Work on Cc1nn2c(NCCCO)c3c(nc2c1-c1cccs1)CCC3 yielded an IC50 of 25 µM.
With CC(C)COC(=O)Nc1ccc(N2CCC(CNS(=O)(=O)c3ccccc3)CC2)c(F)c1 the IC50 was 2 µM.
For CCOC(=O)c1noc(N)c1-c1ccccc1, the IC50 was > 100 µM (inactive).
O=C(Nc1ccc(C(=O)N2CCCC2c2ccc3c(c2)OCCCO3)cc1)c1ccco1 (centres undefined) gave an IC50 of 63 µM.
O=C(NCc1nnc2n1CCCCC2)c1ccc(-c2ccc(F)cc2)o1 gave an IC50 of 79 µM.
O=c1cc(NCCCNC2CCOc3c(I)cc(Cl)cc32)[nH]c2ccccc12 (centres undefined) gave an IC50 of 16 µM.
Oc1c(-c2n[nH]c(Cc3ccc(Cl)cc3)n2)ncc2cccnc12 showed an IC50 of 32 µM.
With O=C(NCCc1cccnc1)c1csc(-c2ccccc2)n1 the IC50 was 0.063 µM.
In the case of CCOc1ccc2nc(NC(=O)c3ccc([N+](=O)[O-])s3)sc2c1, the IC50 is reported as > 100 µM (inactive).
With O=C1c2cnc(N3CCCC3)nc2CN1c1ccc2c(c1)OCO2 the IC50 was > 100 µM (inactive).
For Nc1nc(-c2ccccn2)nc(-n2nc(-c3cccc(C(F)(F)F)c3)cc2N)n1, the IC50 was > 100 µM (inactive).
For O=C(Nc1ccccc1)Nc1nc(-c2ccccn2)cs1, the IC50 was 32 µM.
CC1=C(C(=O)Nc2ccc(Cl)cc2)C(c2ccncc2)n2ncc(C(=O)Nc3ccccc3)c2N1 (centres undefined) gave an IC50 of 0.13 µM.
In the case of COc1ccc2ncc(=O)n(CCN3CC[C@H](NCc4ncc(Cl)c5[nH]ncc45)[C@H](O)C3)c2n1, the IC50 is reported as > 100 µM (inactive).
CC(C)c1cc(Nc2cc(Cc3ccccc3)nc(NC3CCC(O)CC3)n2)n[nH]1 (centres undefined) was tested, and the IC50 was 20 µM.
Cc1c(CNC(=O)c2ccc(Cn3cc(Cl)c([N+](=O)[O-])n3)cc2)cnn1C was tested, and the IC50 was > 100 µM (inactive).
Work on O=C1CCCCCC1(Cc1cnc[nH]1)c1ccc(Cl)cc1Cl (centres undefined) yielded an IC50 of 0.1 µM.
In the case of O=C1NCc2cccc(Nc3nc(NC4CCC(O)CC4)ncc3Br)c21 (centres undefined), the IC50 is reported as > 100 µM (inactive).
With CCN(CC)c1nc(Nc2ccncc2)nc2ccccc12 the IC50 was > 100 µM (inactive).
With CCc1ccc2nc(NC(=O)c3cc(N4CCOCC4)ccn3)sc2c1 the IC50 was > 100 µM (inactive).
COc1ccccc1C=CCN1C[C@H]2CCC[C@@H](C1)C2(O)c1cccnc1 (some centres undefined) showed an IC50 of 0.13 µM.
Cc1cc(C)n(-c2nc(NC(C)C)nc(NC(C)(C)C)n2)n1 was tested, and the IC50 was > 100 µM (inactive).
Molecule COc1ccc2ncc(Cl)c(CCN3CC[C@H](NCc4cc5c(cn4)OCS5)[C@@H](O)C3)c2n1 has an IC50 of 7.9 µM.
With COc1ccc(-c2csc(NC(=O)c3ccc([N+](=O)[O-])s3)n2)cc1 the IC50 was > 100 µM (inactive).
c1ccc(CCNCc2cncc3nc(-c4cnccn4)n(C4CCCCC4)c23)cc1 was tested, and the IC50 was 0.1 µM.
For Cc1cc(Nc2ccc(C#N)c(Cl)c2C)n[nH]1, the IC50 was 40 µM.
Work on CC(CNS(=O)(=O)c1ccc(OC(F)F)cc1)c1ccc(NC(=O)c2ccncc2)cc1 (centres undefined) yielded an IC50 of 0.05 µM.
In the case of O=C(CN(Cc1ccccn1)Cc1ccccn1)NCc1csc(-c2cccs2)n1, the IC50 is reported as 40 µM.
CCOc1ccccc1C(=O)Nc1nnc(-c2ccc3c(c2)OCO3)s1 was tested, and the IC50 was > 100 µM (inactive).
With CN(CCOc1ccc(Cl)cc1)Cc1nc(N)nc(N(C)C)n1 the IC50 was 32 µM.
CS(=O)(=O)c1ccc(Nc2nccc(-c3cnn4ncccc34)n2)cc1 showed an IC50 of 16 µM.
With Cc1cc(N(C)C)nc2ccc(Cc3cnc(N)nc3N)cc12 the IC50 was > 100 µM (inactive).
COc1cc(OC)cc(C(NS(=O)(=O)c2ccc(Cl)c(C(F)(F)F)c2)c2nccn2C)c1 (centres undefined) showed an IC50 of 32 µM.
In the case of Cc1ccccc1NS(=O)(=O)c1ccc2[nH]cc(C(=O)NC3CCCC3)c(=O)c2c1, the IC50 is reported as 13 µM.
Cc1cccc(N2CCCN(Cc3c[nH]c4ccccc34)CC2)n1 was tested, and the IC50 was > 100 µM (inactive).
CCN(CC)c1ncc(C(=O)c2ccc([N+](=O)[O-])o2)s1 gave an IC50 of 40 µM.
With Cc1cc(-c2cccc3ccccc23)nc2nc(N)nc(N)c12 the IC50 was > 100 µM (inactive).
O=C(Nc1cccc(S(=O)(=O)Nc2ccc(Br)cc2)c1)c1ccc([N+](=O)[O-])s1 was tested, and the IC50 was 2.5 µM.
O=C(Cn1cnc([N+](=O)[O-])n1)Nc1ccc(Cl)cc1C(=O)c1ccccc1 showed an IC50 of 10 µM.
In the case of CC(C)Nc1nc(Cl)nc2ccccc12, the IC50 is reported as > 100 µM (inactive).
For COCCn1c(-c2ccc3c(c2)OCO3)cnc1NCc1ccccc1OC, the IC50 was 5 µM.
In the case of Cc1cc(Nc2cc(C3CC3)[nH]n2)nc(N2CCC[C@H]2C(N)=O)n1, the IC50 is reported as > 100 µM (inactive).
For COc1ccc(-c2csc(NC(=O)c3ccc([N+](=O)[O-])s3)n2)cc1OC, the IC50 was > 100 µM (inactive).
Work on Cc1cccnc1NC(=O)c1cccc(OCc2c(C)noc2C)c1 yielded an IC50 of 50 µM.
With Cc1nc(C(=O)Nc2ccc3c(c2)OCO3)nn1-c1ccc(F)cc1 the IC50 was 40 µM.
For O=C(CN(c1cccc(C(F)(F)F)c1)S(=O)(=O)c1ccc(Cl)cc1)NCc1ccc(F)c(F)c1, the IC50 was 0.16 µM.
With CC(=O)Nc1ccc(CN2CCC(N3CC(c4ccccc4)(c4ccccc4)OCC3=O)CC2)cc1 the IC50 was > 100 µM (inactive).
In the case of COc1ccc(S(=O)(=O)NC(C)C)cc1Nc1ncc(-c2cccc(F)c2)cn1, the IC50 is reported as > 100 µM (inactive).
For O=C(CN1CCN(S(=O)(=O)c2cccc([N+](=O)[O-])c2)CC1)Nc1ccc(Oc2ccccc2)cc1, the IC50 was 2.5 µM.
CS(=O)(=O)c1ccc(CC(=O)Nc2nc(-c3ccc(Cl)s3)cs2)cc1 was tested, and the IC50 was > 100 µM (inactive).
For CCC(=O)N1N=C(c2ccc3c(c2)CCCC3)Sc2c1ncn2C(=O)CC, the IC50 was > 100 µM (inactive).
With CC(C)CC(=O)Nc1cc(C2CC2)nn1-c1nc2c(c(=O)[nH]1)CCCC2 the IC50 was > 100 µM (inactive).
Cc1cc(C)n(-c2nc(NC(C)(C)C)nc(N3CCOCC3)n2)n1 was tested, and the IC50 was > 100 µM (inactive).
Nc1ncnc2c1ncn2[C@@H]1O[C@H](CO)C[C@H]1O was tested, and the IC50 was > 100 µM (inactive).
Fc1ccc(OC2CC(NCc3cccc4cn[nH]c34)C2)cc1C(F)(F)F (centres undefined) showed an IC50 of 0.13 µM.
In the case of O=C(c1cccc(Nc2ncc(-c3ccc4c(c3)OCO4)cn2)c1)N1CCSC1, the IC50 is reported as 16 µM.
CC(C)(C)c1csc(NC(=O)c2ccc([N+](=O)[O-])s2)n1 was tested, and the IC50 was 7.9 µM.
CCNc1cc(-c2ccccn2)nc(Nc2ccc(OC)cc2)n1 showed an IC50 of 40 µM.
O=C(N1CCc2ccccc2CC1)C1(C(=O)N2CCC(n3c(=O)[nH]c4ncccc43)CC2)CC1 gave an IC50 of 0.32 µM.
Molecule COc1cnc2ccc(=O)n(CCN3CCC(NC(=O)c4ccc(Cl)cc4)CC3)c2c1 has an IC50 of 10 µM.
CC(C)Oc1ccc(C(=O)Nc2ccc(N3CCOCC3)c(Cl)c2)cc1 was tested, and the IC50 was > 100 µM (inactive).
O=C(Nc1cccc(Cl)c1)N1CCCCC1c1cccnc1 (centres undefined) showed an IC50 of 0.02 µM.
OCCCNc1nc(Nc2ccncc2)nc2ccccc12 was tested, and the IC50 was > 100 µM (inactive).
In the case of Cc1cc2nc(N3CC[C@H]3C(N)=O)nc(Nc3cc(C4CC4)[nH]n3)c2s1, the IC50 is reported as > 100 µM (inactive).
Work on COc1ccc(CN2C(=O)C(O)(CC(=O)c3ccncc3)c3cc(Br)ccc32)cc1OC (centres undefined) yielded an IC50 of 0.5 µM.
COc1ccc(NS(=O)(=O)c2cc(NC(=O)c3ccc([N+](=O)[O-])s3)ccc2OC)cc1 showed an IC50 of 1 µM.
c1cc(-c2ncc(-c3ccn[nH]3)s2)ccn1 showed an IC50 of 0.04 µM.
With O=C(NC(CO)c1ccc(F)cc1)c1ccc(-c2c[nH]c3ncccc23)s1 (centres undefined) the IC50 was 1.3 µM.
Molecule CCS(=O)(=O)c1cccc(C(=O)Nc2nc(-c3ccccn3)cs2)c1 has an IC50 of 63 µM.
COc1cc(Cl)c(C)cc1NC(=O)c1ccc([N+](=O)[O-])s1 gave an IC50 of 16 µM.
In the case of COc1ccc(S(=O)(=O)Nc2ccc(CN3CCN(C(=O)c4cccc(C#N)c4)CC3)cc2)cc1, the IC50 is reported as > 100 µM (inactive).
For Cc1ccccc1OCC(=O)N1CCCN(c2cccnn2)CC1, the IC50 was 0.079 µM.
Work on CC1(C)CCC(=Cc2ccc(Cl)cc2)CC1(O)Cn1ccnc1 (centres undefined) yielded an IC50 of 0.05 µM.
Work on Cc1cc(Br)sc1CNCCCNc1cc(=O)c2ccccc2[nH]1 yielded an IC50 of 63 µM.
For Clc1cc(Br)ccc1OCCCCn1ccnc1, the IC50 was 0.063 µM.
For COc1ccc(NS(=O)(=O)c2cc(NC(=O)Cc3ccc(C)cc3)ccc2N2CCOCC2)cc1, the IC50 was > 100 µM (inactive).
For Cc1ccc(-c2csc(NC(=O)C=Cc3ccc(S(=O)(=O)N4CCOCC4)cc3)n2)o1, the IC50 was 20 µM.
For O=C(NCCc1ccn(-c2ccccc2)n1)C1CCCCC1, the IC50 was 100 µM.
Cc1ccc(C)c(OC2CCN(C(=O)C(C)n3ccnc3)CC2)c1 (centres undefined) was tested, and the IC50 was 0.1 µM.
In the case of Nc1nc(-c2ccccn2)nc(N)c1Cc1c(F)cccc1Cl, the IC50 is reported as > 100 µM (inactive).
With O=C(NCC1CCCCN1C(=O)c1cccc2ccccc12)c1ccccc1 (centres undefined) the IC50 was > 100 µM (inactive).
In the case of O=C1COC(c2ccccc2)(c2ccccc2)CN1C1CCN(Cc2ccc(-n3ccnc3)cc2)CC1, the IC50 is reported as 0.079 µM.
With c1ccc(-c2nc(NC3CCCC3)c3ccccc3n2)nc1 the IC50 was > 100 µM (inactive).
With CCCc1nc2nc(N)nc(N)c2cc1CC the IC50 was > 100 µM (inactive).
In the case of O=C(c1ccc(Cl)cc1)c1ccc(OC(=O)N2CCOCC2)cc1, the IC50 is reported as 40 µM.
Molecule CCn1nccc1CN(C)C(=O)C=Cc1ccc(Cl)cc1 has an IC50 of 0.32 µM.
In the case of Cc1[nH]n2c(=O)c3c(nc2c1-c1ccc(Cl)cc1)CCCC3, the IC50 is reported as > 100 µM (inactive).
With CC(C)(C)C(Cn1ccnc1)NC(=O)c1ccc2nc(C3CC3)oc2c1 (centres undefined) the IC50 was 0.1 µM.
O=C(NC1CCN(C2Cc3ccc(NS(=O)(=O)c4cc(F)cc(F)c4)cc3C2)CC1)C1CC1 (centres undefined) gave an IC50 of 50 µM.
With CN(Cc1ccc(F)cc1)c1ccc(OCC(=O)N2CCCCC2c2cccnc2)nn1 (centres undefined) the IC50 was 0.05 µM.
For O=C(Nc1nc2cc(Cl)ccc2o1)c1cccc(Cl)c1, the IC50 was > 100 µM (inactive).
Cc1cnc(Nc2cc(Cc3ccccc3)nc(NC3CCC(O)CC3)n2)s1 (centres undefined) was tested, and the IC50 was > 100 µM (inactive).
With Cc1cccc(NS(=O)(=O)c2cnc3sc(C)cn3c2=O)c1 the IC50 was > 100 µM (inactive).
Cn1nc(-c2ccc(NC(=O)Cc3ccccc3Cl)cc2)c2c(N)ncnc21 was tested, and the IC50 was 63 µM.
CC(C)CC(=O)NC(c1cccs1)c1ccc2cccnc2c1O (centres undefined) showed an IC50 of 50 µM.
For Cc1ccc(NC(=O)C(C)n2nc([N+](=O)[O-])c(Br)c2C)cc1Cl (centres undefined), the IC50 was > 100 µM (inactive).
For O=C(CN(Cc1ccccn1)Cc1ccccn1)NCc1ccc2c(c1)OCO2, the IC50 was 100 µM.
With O=C(NCCCn1cnc2ccccc21)c1ccc(NC(=O)c2ccco2)cc1 the IC50 was 16 µM.
For Cc1nc2c(-c3cccs3)c(C)nn2c(NCCO)c1C, the IC50 was > 100 µM (inactive).
CNC(=O)C1Cc2ccccc2N1C(=O)Cc1ccc(F)cc1 (centres undefined) was tested, and the IC50 was > 100 µM (inactive).
O=S(=O)(c1cccc(CSc2nnc(-c3ccc4c(c3)OCO4)o2)c1)N1CCOCC1 was tested, and the IC50 was 13 µM.
COc1ccc(-c2ccc3nnc(-c4ccc(O)c(OC)c4)n3c2)cn1 was tested, and the IC50 was > 100 µM (inactive).
C[C@@H](Oc1cc(-n2cnc3ccc(O[C@H]4CCNC4)cc32)sc1C(N)=O)c1ccccc1Cl was tested, and the IC50 was 1.3 µM.
In the case of CC(Cn1ccnc1)NC(=O)C=Cc1ccc(Cl)cc1 (centres undefined), the IC50 is reported as 0.16 µM.
